# Where two headings read alike, the source gives them in different places.
# Columns and labels:
# 2C5 TCR = experiment: SPR equilibrium binding of 2C5 TCR to DR1-peptide; design: species or system human; settings: 25°C; for Kd: SPR equilibrium binding, Biacore 3000, CM5 chip, biotinylated pMHC-II immobilized on streptavidin, 2C5 TCR injected in eight serial dilutions, 45 μl/min
# Protocol: Binding analysis was performed using a Biacore 3000 (GE Healthcare) equipped with a CM5 sensor chip, as reported previously ([43], [44]). Between 200 and 400 response units of biotinylated pMHC-II was immobilized on streptavidin, which was chemically linked to the chip surface. pMHC-II was injected at a slow-flow rate (10 μl/min) to ensure uniform distribution on the chip surface. The 2C5 TCR was purified and concentrated to ∼100 μM on the day of analysis to minimize TCR aggregation. For equilibrium analysis, eight serial dilutions were carefully prepared and injected over the relevant sensor chip at a flow rate of 45 μl/min at 25°C. Results were analyzed using BIAevaluation 3.1, Microsoft Excel, and Origin 6.1. The KD values were calculated using a nonlinear curve fit [y = P1x/(P2 + x)].
# HA1.7 TCR [1] = experiment: Thermodynamic analysis (SPR, nonlinear van't Hoff) of HA1.7 TCR ligation; assay type: binding, human; settings: HA1.7-DR1-Flu3, 298 K; Biacore T100; 10 serial dilutions of TCR at 5, 10, 15, 20, 25, 30°C; triplicate
# Protocol: Thermodynamic analysis of HA1.7 TCR ligation to DR1-Flu3 was performed using a Biacore T100 (GE Healthcare) equipped with a CM5 sensor chip. Activation and pMHC-II loading were assessed as previously described ([40]). A total of 500 response units of biotinylated pMHC-II were immobilized to streptavidin, which was chemically linked to the chip surface. Equilibrium binding analysis was performed with 10 serial dilutions of the TCR individually injected at temperatures of 5, 10, 15, 20, 25, and 30°C. Experiments were performed in triplicate using a blank flow cell, A2-[…] and DR1-CLIP as negative controls in separate experiments. The binding response was determined by subtraction of the response measured on a negative control flow cell from the response measured on flow cells containing DR1-Flu3. Results were analyzed using BIAevaluation 3.1, Microsoft Excel, and Origin 6.1. The KD values were calculated using a nonlinear curve fit [y = (P1x)/(P2 + x)].
# CD4+ T cell clone 2C5 = experiment: pMHC-II multimer staining of CD4+ T cell clone 2C5; assay type: cell-based, human; settings: DR1-Flu3 versus DR1-Flu1 multimer; 1 μg multimer, 1 × 10^5 cells, 20 min at 4°C
# Protocol: (§1) Clonal CD4^+ T cells (1 × 10^5) specific for HA306–318 were resuspended with 1 μg DR1-Flu1 or DR1-Flu3 multimer and incubated for 20 min at 4°C ([45]). Cells were then washed twice with PBS, stained with Live/Dead fixable violet (ViViD; Invitrogen) for 10 min at room temperature and labeled with mouse anti-human CD4-allophycocyanin (BD Biosciences) for 20 min at 4°C. After two further washes in PBS, samples were acquired directly on a FACSCanto II flow cytometer (BD Biosciences). Data were analyzed using FlowJo software version 10 (Tree Star). All incubations with fluorochrome-conjugated pMHC-II multimers were performed in the dark.
# [2] = tested on: CD4+ T cell clone 2C5 spiked at 1% into DR1+ PBMCs; experiment: Multimer dilution assay; assay type: cell-based, human
# Protocol: Each multimer was serially diluted six times (1, 0.5, 0.25, 0.125, 0.0625, 0.0312, or 0.0156 μg with respect to the pMHC-II component) and used in a final volume of 20 μl to stain 1 × 10^6 DR1^+ PBMCs spiked at 1% with the CD4^+ T cell clone 2C5. After incubation for 20 min at 4°C, cells were washed twice in PBS, stained with Live/Dead fixable aqua (Invitrogen) for 10 min at room temperature and labeled with mouse anti-human CD3-FITC (Serotec), mouse anti-human CD4-allophycocyanin (BD Biosciences), mouse anti-human CD14–Pacific Blue (Invitrogen), and mouse anti-human CD19–Pacific Blue (Invitrogen) for 20 min at 4°C. After two further washes in PBS, samples were acquired directly on a FACSCanto II flow cytometer (BD Biosciences). Data were analyzed using FlowJo software version 10 (Tree Star).
# [3] = tested on: CD4+ T cell clone 2C5 spiked into PBMCs; experiment: Clone dilution assay; assay type: cell-based, human; settings: 0.125 μg multimer/1 × 10^6 PBMCs
# Protocol: PBMCs (2 × 10^6) were spiked at 1, 0.5, 0.25, 0.125, 0.0625, or 0.0312% with the CD4^+ T cell clone 2C5. Cell mixtures were then stained with 0.125 μg multimer/1 × 10^6 PBMCs and labeled with Abs as described in the previous section. Samples were acquired directly on a FACSCanto II flow cytometer (BD Biosciences) and analyzed using FlowJo software version 10 (Tree Star).
# [4] = tested on: Flu1 peptide-stimulated DR1+ PBMCs (CD4+ T cells); experiment: Multimer staining following PBMC culture; assay type: cell-based, human; settings: four DR1+ donors, 12 d after HA306–318 stimulation
# Protocol: (§2) Flu1 peptide–stimulated, precultured PBMCs (5 × 10^5) were transferred to a 96-well plate and washed with PBS. Cell pellets were resuspended in 25 nM […] dasatinib (Axon Medchem, Reston, VA) and incubated for 30 min at 37°C. For each multimer, 0.5 μg was added directly to the cell pellet before incubating for 20 min on ice in the dark. Where dual staining with both PE- and allophycocyanin-conjugated multimers was used, 0.5 μg each was mixed per sample prior to addition to the cell pellets. Cells were then washed twice with cold PBS, followed by Live/Dead aqua (Life Technologies) staining to exclude dead cells. Surface staining was subsequently performed in PBS, 2.5% FCS, and 5 mM EDTA (FACS buffer), with the following cell surface markers: CD3-PerCP-Cy5.5 (BD Biosciences), CD4–Brilliant Violet 421 (BioLegend), CD14-FITC (BioLegend), and CD19-FITC (BioLegend). Cells were incubated for 20 min at 4°C in the dark before resuspending in FACS buffer for acquisition on a FACSCanto II (BD Biosciences). Data were analyzed using FlowJo version 10 (Tree Star).
# [5] = tested on: Flu1 peptide-stimulated DR1+ PBMCs of donor 4 (CD4+ T cells); experiment: Dual multimer staining following PBMC culture; assay type: cell-based, human; settings: dual stain 1 vs dual stain 2, donor 4
# Protocol: as §2
# [6] = tested on: CD4+ T cells in DR1+ PBMCs ex vivo; assay type: cell-based, human
# [7] = tested on: CD4+multimer+ T cells in PBMCs after influenza vaccination; assay type: cell-based, human
# CD4+ T cell clone DC-C10 = experiment: Multimer staining of CD4+ T cell clone DC-C10; assay type: cell-based, human; settings: histograms, Fig. 6B
# Protocol: as §1
# CD4+ T cell clone DC-D8 = experiment: Multimer staining of CD4+ T cell clone DC-D8; assay type: cell-based, human; settings: histograms, Fig. 6C
# Protocol: as §1
# HA1.7, F11, and C6 TCRs = settings: three TCRs HA1.7, F11, C6; presented by DR1; vs Flu1; cited from earlier work
# HA1.7 TCR [8] = settings: HA1.7-DR1-Flu1, 298 K, nonlinear regression of temperature vs free energy; previously published; cited from earlier work
# Description: FIGURE 1. The biophysical impact of altered C-terminal PFRs on TCR binding. SPR was used to determine equilibrium binding of the 2C5 TCR to DR1 complexed with either (A) native Flu1 (HA306−318, […]) or (B) altered Flu3 ([…]). (C) Previously published thermodynamic analysis of the HA1.7-DR1-Flu1 interaction ([40]). (D) HA1.7-DR1-Flu3 thermodynamic properties showing enthalpy (ΔH^o) and entropy (TΔS^o) at 298 K calculated by nonlinear regression of temperature (K) plotted against free energy (ΔG^o). TEXT PRINTED IN THE PICTURE: (A) 2C5-DR1-Flu1: KD = 30 ± 2 μM | (B) 2C5-DR1-F ...
# [9] = tested on: T cells of three DR1+ donors; experiment: IFN-γ ELISPOT; assay type: cell-based, human; settings: all three donors; data not shown
sequence,measurement,setting,value
"PKYVKQNTLKLAR [DR1-Flu3, HLA-DR1 heterodimer complexed with altered Flu3 ([…]); monomer in SPR, fluorochrome-tagged multimer in staining]",Kd,2C5 TCR,16 ± 2 µM
same,"affinity of 2C5 TCR, fold stronger compared with wild-type C-terminal PFR sequence","2C5 TCR; SPR, vs DR1-Flu1",~2 fold
same,TΔS°,HA1.7 TCR [1],20 kcal/mol
same,ΔH°,HA1.7 TCR [1],16.4 kcal/mol
same,mean fluorescence intensity (MFI) of staining of 2C5 clone,CD4+ T cell clone 2C5,A large increase in mean fluorescence intensity (MFI)
same,identification of CD4+multimer+ population at 1 μg/1 × 10^6 PBMCs,"[2]; PBMCs spiked at 1% with 2C5, 20 min at 4°C",enabled clear visualization and accurate enumeration
same,lowest multimer concentration with distinct staining,"[2]; PBMCs spiked at 1% with 2C5, 20 min at 4°C, distinct staining at concentrations down to this value",0.0312 μg/1 × 10^6 PBMCs
same,optimal quantity of multimer per stain,[2]; greatest shift in MFI while reducing potential nonspecific staining,0.125 μg/1 × 10^6 PBMCs
same,ability to detect cognate CD4+ T cells across range of spiked frequencies,"[3]; 2C5 spiked at 1 to 0.0312%, compared with DR1-Flu1",far superior ability to detect cognate CD4^+ T cells across the entire range of spiked frequencies
same,CD4+multimer+ population size and MFI compared with DR1-Flu1 multimer,[4],"detected larger populations of CD4^+multimer^+ cells, with generally greater MFIs"
same,"detection of additional, presumably lower avidity, cells compared with DR1-Flu1",[5],"able to detect additional, presumably lower avidity, cells compared with DR1-Flu1"
same,"MFI, fold higher than DR1-Flu1",[6],3 fold
same,proportion of CD4+ T cells stained compared with DR1-Flu1 multimer,[6],stained a higher proportion of CD4^+ T cells
same,population of CD4+ T cells identified compared with DR1-Flu1 multimer,[7],identified a larger population of CD4^+ T cells
same,staining of clone DC-C10,CD4+ T cell clone DC-C10,stained
same,staining of clone DC-D8,CD4+ T cell clone DC-D8,stained
"PKYVKQNTLKLAR [Flu3, C-terminally modified variants of HA306−318 with Arg at P11 (Flu3, […])]",binding affinity increase,"HA1.7, F11, and C6 TCRs",~2 fold
"PKYVKQNTLKLAT [DR1-Flu1, HLA-DR1 heterodimer complexed with native Flu1 (HA306−318, …); monomer in SPR, fluorochrome-tagged multimer in staining]",Kd,2C5 TCR,30 ± 2 µM
same,identification of cognate CD4+ T cells at lower reagent concentrations,"[2]; below 1 μg/1 × 10^6 PBMCs, PBMCs spiked at 1% with 2C5",failed to identify cognate CD4^+ T cells
same,spiked frequency at which precise quantification was almost impossible,[3]; poor separation,≤ 0.25%
same,staining of clone DC-C10,CD4+ T cell clone DC-C10,stained
same,staining of clone DC-D8,CD4+ T cell clone DC-D8,stained
same,TΔS°,HA1.7 TCR [8],23.8 kcal/mol
same,ΔH°,HA1.7 TCR [8],18 kcal/mol
"PKYVKQNTLKLAT [Flu1, influenza HA306–318 (Flu1), …]",T cell responses in IFN-γ ELISPOT assays,[9],robust T cell responses

# — article PMC4671089, “Enhanced Detection of Antigen-Specific CD4^+ T Cells Using Altered Peptide Flanking Residue Peptide–MHC Class II Multimers” (The Journal of Immunology Author Choice, 2015)
